Columns and labels:
KB [1] = experiment: Inhibitory concentration of compound against KB Basal; settings: Homo sapiens
[2] = AUC in Mice after administration of 5 mg/kg through peroral route; type: ADME, organism-based; design: dose 5 mg/kg, route oral; settings: mouse, plasma, po
[3] = Plasma concentration of compound after 4 hours of administration of 100 mg/kg through peroral route; settings: mouse, po
[4] = Bioavailability of compound in Mice after administration of 2 mg/kg through intra venous route; type: ADME, organism-based; settings: mouse, in vivo, intravenous, read-out: Bioavailabiility
[5] = Plasma concentration of compound after 6 hours of administration of 100 mg/kg through peroral route; settings: mouse, po
BT-474 = experiment: Inhibitory concentration of compound against BT474C using standard MTT colorimetric endpoint; settings: Homo sapiens
[6] = Steady state volume of Distribution of compound in Mice after administration of 2 mg/kg through intra venous route; type: ADME, organism-based; design: dose 2 mg/kg; settings: mouse, in vivo, iv, read-out: Vdss
[7] = Steady state volume of Distribution of compound in Mice after administration of 5 mg/kg through peroral route; type: ADME, organism-based; design: dose 5 mg/kg, route oral; settings: mouse, in vivo, po
[8] = Bioavailability of compound in Mice after administration of 5 mg/kg through peroral route; type: ADME, organism-based; settings: mouse, in vivo, po, read-out: Bioavailabiility
[9] = Plasma concentration of compound after 16 hours of administration of 100 mg/kg through peroral route; settings: mouse, po
[10] = Clearance of compound in Mice after administration of 2 mg/kg through intra venous route; type: ADME, organism-based; design: dose 2 mg/kg; settings: mouse, in vivo, iv
[11] = target: T1, Receptor tyrosine-protein kinase erbB-2 (Homo sapiens, UniProt P04626); experiment: Inhibitory concentration against erbB2 autophosphorylation in MCF-7 breast carcinoma cell line; type: functional, cell-based, MCF7
T1 sequence (P04626 whole entry): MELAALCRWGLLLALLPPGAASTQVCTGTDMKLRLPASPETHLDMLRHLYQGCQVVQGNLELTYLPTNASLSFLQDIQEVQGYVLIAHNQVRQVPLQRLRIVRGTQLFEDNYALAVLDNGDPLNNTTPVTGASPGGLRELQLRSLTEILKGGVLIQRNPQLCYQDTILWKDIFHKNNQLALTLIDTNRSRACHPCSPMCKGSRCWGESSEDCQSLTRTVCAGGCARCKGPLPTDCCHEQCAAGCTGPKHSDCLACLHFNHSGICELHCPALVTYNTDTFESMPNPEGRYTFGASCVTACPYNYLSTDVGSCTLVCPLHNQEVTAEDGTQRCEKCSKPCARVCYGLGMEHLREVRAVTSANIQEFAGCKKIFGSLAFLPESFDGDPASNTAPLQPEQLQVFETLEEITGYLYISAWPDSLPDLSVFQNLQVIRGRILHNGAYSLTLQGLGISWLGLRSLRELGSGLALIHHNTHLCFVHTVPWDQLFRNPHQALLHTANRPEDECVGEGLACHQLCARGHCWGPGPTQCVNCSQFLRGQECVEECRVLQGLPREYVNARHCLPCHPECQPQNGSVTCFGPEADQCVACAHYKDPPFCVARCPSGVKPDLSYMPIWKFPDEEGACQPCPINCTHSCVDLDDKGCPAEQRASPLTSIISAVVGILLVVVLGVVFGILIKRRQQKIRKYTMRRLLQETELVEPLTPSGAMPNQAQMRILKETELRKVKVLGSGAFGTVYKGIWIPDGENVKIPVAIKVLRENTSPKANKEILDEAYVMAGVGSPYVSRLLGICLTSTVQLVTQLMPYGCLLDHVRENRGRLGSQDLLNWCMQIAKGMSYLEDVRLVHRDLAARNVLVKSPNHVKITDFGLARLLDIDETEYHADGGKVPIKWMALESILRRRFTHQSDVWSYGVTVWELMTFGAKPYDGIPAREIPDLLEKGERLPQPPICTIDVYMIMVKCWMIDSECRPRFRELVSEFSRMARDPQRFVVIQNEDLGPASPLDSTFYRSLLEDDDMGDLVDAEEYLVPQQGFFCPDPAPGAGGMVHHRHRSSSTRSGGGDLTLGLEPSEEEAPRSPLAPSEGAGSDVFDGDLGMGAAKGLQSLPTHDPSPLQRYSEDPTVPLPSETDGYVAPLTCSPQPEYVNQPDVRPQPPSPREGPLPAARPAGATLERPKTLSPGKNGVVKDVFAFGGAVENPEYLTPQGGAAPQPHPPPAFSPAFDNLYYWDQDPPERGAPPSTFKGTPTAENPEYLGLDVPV

[12] = target: Epidermal growth factor receptor (Homo sapiens, UniProt P00533); experiment: Inhibitory concentration against EGFR kinase phosphorylation using synthetic peptide as a substrate
Chain of Epidermal growth factor receptor (P00533 whole entry): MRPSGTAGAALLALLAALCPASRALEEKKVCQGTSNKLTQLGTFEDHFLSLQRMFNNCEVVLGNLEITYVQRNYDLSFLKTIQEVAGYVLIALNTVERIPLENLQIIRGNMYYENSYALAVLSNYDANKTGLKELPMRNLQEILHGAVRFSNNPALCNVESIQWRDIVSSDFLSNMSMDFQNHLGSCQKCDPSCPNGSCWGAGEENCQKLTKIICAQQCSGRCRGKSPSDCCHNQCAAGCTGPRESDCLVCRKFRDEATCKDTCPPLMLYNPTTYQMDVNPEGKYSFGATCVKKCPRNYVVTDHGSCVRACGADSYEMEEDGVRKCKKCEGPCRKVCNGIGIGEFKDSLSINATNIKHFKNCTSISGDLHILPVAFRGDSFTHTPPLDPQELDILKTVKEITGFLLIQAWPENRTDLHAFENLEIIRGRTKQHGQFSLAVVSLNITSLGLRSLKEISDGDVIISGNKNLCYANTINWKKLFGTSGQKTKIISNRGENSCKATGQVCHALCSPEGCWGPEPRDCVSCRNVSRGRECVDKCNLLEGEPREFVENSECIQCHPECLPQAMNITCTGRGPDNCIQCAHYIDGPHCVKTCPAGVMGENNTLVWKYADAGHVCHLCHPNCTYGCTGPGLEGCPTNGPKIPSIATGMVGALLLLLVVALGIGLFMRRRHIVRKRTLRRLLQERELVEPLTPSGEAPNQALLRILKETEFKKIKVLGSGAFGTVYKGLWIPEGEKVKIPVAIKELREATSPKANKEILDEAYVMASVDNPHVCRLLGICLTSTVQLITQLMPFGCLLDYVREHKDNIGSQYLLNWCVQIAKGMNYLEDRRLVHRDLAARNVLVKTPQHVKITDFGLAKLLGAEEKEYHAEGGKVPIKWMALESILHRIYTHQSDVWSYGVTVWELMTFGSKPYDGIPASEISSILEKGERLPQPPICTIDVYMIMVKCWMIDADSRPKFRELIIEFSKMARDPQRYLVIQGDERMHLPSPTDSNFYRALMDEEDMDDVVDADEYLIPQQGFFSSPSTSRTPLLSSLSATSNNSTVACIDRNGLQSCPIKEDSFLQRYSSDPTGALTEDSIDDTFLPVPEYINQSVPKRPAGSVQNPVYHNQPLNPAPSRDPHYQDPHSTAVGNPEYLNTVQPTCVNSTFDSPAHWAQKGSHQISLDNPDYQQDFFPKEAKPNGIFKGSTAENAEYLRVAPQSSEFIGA

[13] = target: T1, Receptor tyrosine-protein kinase erbB-2; experiment: Inhibitory concentration against erbB2 kinase phosphorylation using synthetic peptide as a substrate
KB [14] = experiment: Inhibitory concentration of compound against KB using a sandwich ELISA; settings: Homo sapiens
[15] = Plasma concentration of compound after 24 hours of administration of 100 mg/kg through peroral route; settings: mouse, po
[16] = Plasma concentration of compound after 2 hours of administration of 100 mg/kg through peroral route; settings: mouse, po
[17] = AUC in Mice after administration of 5 mg/kg through oral route; settings: mouse, plasma
[18] = Clearance of compound in Mice after administration of 5 mg/kg through peroral route; type: ADME, organism-based; design: dose 5 mg/kg, route oral; settings: mouse, in vivo, po

SMILES: CN1CCC(Oc2cccc3ncnc(Nc4ccc(OCc5ccccn5)c(Cl)c4)c23)CC1
- IC50 (KB [1]): 11900 nM
- AUC [2]: 5.5 µM·h
- concentration at 4 h [3]: 7.2 µM
- bioavailability [4]: 50%
- concentration at 6 h [5]: 6.9 µM
- IC50 (BT-474): 41 nM
- Vd [6]: 2.6 L/kg
- Vdss [7]: 2.6 L/kg
- bioavailability [8]: 50%
- concentration at 16 h [9]: 2.2 µM
- clearance [10]: 15 mL/min/kg
- IC50 [11]: 61 nM
- IC50 [12]: 140 nM
- IC50 [13]: < 2 nM
- IC50 (KB [14]): 2600 nM
- concentration at 24 h [15]: 1.1 µM
- concentration at 2 h [16]: 9.2 µM
- AUC [17]: 5.5 µM·h
- CL/F [18]: 15 mL/min/kg

SMILES: Clc1cc(Nc2ncnc3cccc(OC4CCOCC4)c23)ccc1OCc1ccccn1
- IC50 [12]: 2400 nM
- IC50 [13]: 24 nM

SMILES: CN1CCC(Oc2cccc3ncnc(Nc4ccc(OCc5ccccn5)cc4)c23)CC1
- IC50 [12]: 2100 nM
- IC50 [13]: 70 nM

SMILES: COc1cccc2ncnc(Nc3ccc(OCc4ccccn4)c(Cl)c3)c12
- IC50 [12]: 440 nM
- IC50 [13]: 24 nM

SMILES: CN1CCC(Oc2cccc3ncnc(Nc4ccc(OCc5cscn5)c(Cl)c4)c23)CC1
- IC50 [12]: 698 nM
- IC50 [13]: < 2 nM

SMILES: COc1ccc(Nc2ncnc3cccc(OC4CCN(C)CC4)c23)cc1Cl
- IC50 [12]: 1800 nM
- IC50 [13]: 1100 nM

SMILES: CN1CCC(Oc2cccc3ncnc(Nc4ccc(OCc5cccc(F)c5)c(Cl)c4)c23)CC1
- IC50 (KB [1]): 1700 nM
- IC50 (BT-474): 2.7 nM
- IC50 [11]: 56 nM
- IC50 [12]: 5 nM
- IC50 [13]: < 2 nM
- IC50 (KB [14]): 460 nM

SMILES: COc1cc2ncnc(Nc3ccc(OCc4ccccn4)c(C)c3)c2cc1OC
- IC50 [12]: 59 nM
- IC50 [13]: 56 nM

SMILES: CN1CCC(Oc2cccc3ncnc(Nc4ccc(OCc5cnccn5)c(Cl)c4)c23)CC1
- IC50 [12]: 690 nM
- IC50 [13]: < 2 nM
